How the values were obtained:
MCF-7 mammary carcinoma = test: in vitro cell growth inhibition, PIT method, MCF-7; format: cell-based, human; conditions: amount which inhibits 50% of the cell growth
Protocol: (§1) The compounds (1), (2) and (3) as well as their starting compounds, i.e. (4), (5) and (6) respectively, [drawing 8] were tested in vitro against the following human tumor cell lines • MCF-7 mammary carcinoma • WiDr colon tumor cells
(§2) The tests were carried out according to the method of R. van Lambalgen and P. Lelieveld, The PIT Method: an automated in vitro technique for drug toxicity testing. Invest. New Drug 5, 161-165 (1987).
(§3) The ID50 values in ng/ml for the above compounds were determined, i.e. the amount which inhibits 50% of the cell growth.

WiDr colon tumor cells = test: in vitro cell growth inhibition, PIT method, WiDr; format: cell-based, human; conditions: amount which inhibits 50% of the cell growth
Protocol: as §1, §2, §3

Structure (SMILES): N.N.[Cl][Pt][Cl] [Cis-platin]
- ID50 (MCF-7 mammary carcinoma): 0.85 µg/mL
- ID50 (WiDr colon tumor cells): 0.624 µg/mL

Source: patent EP0484596A1, “Organotin compounds and anti-tumor compositions containing them” (priority 1990, dated 1992)
